Data published in patent publication US10894784B2, “Heteroarylbenzimidazole compounds” (BAYER PHARMA AKTIENGESELLSCHAFT, priority 2015, dated 2021).

What follows are molecules tested against TBK1 (Homo sapiens (Human), UniProt Q9UHD2) (assay: TBK1 low ATP kinase assay (in vitro assay 1)). Conditions: TBK1 low ATP kinase assay IC50, in vitro assay 1.
Sequence of TBK1 (Q9UHD2 whole entry): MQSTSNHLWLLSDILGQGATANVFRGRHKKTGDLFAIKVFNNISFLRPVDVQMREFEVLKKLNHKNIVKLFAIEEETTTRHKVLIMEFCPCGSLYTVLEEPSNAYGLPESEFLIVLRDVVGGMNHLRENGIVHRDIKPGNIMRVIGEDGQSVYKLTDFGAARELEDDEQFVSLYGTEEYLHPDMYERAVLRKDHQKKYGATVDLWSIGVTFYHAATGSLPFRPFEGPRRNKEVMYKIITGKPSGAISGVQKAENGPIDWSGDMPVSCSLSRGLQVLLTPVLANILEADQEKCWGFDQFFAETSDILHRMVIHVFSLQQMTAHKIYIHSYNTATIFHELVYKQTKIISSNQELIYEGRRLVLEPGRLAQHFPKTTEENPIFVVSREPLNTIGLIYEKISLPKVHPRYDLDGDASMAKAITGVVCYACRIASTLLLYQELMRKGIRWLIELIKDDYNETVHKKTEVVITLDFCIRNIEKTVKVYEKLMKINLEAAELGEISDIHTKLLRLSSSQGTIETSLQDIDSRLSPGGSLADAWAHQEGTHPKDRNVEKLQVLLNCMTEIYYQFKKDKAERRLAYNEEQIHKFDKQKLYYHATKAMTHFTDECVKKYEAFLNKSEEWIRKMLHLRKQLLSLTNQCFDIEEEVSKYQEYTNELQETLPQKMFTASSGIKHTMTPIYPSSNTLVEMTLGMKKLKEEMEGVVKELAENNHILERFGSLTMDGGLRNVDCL
Assay type: biochemical
`Cc1noc(-c2ccc3nc(Nc4cc(C(C)N5CCN(C(=O)CC(F)(F)F)CC5)ccn4)[nH]c3c2)n1` (single isomer, unassigned) [Example 16.06.02.B, 3,3,3-trifluoro-1-{4-[(1S or 1R)-1-(2-{[6-(3-methyl-1,2,4-oxadiazol-5-yl)-1H-benzimidazol-2-yl]amino}pyridin-4-yl)ethyl]piperazin-1-yl}propan-1-one] gave an IC50 of 17.2 nM.

Same assay, conditions: in vitro assay 1, read-out: TBK1 low ATP kinase assay IC50
With `Cn1ccc(-c2ccc3nc(Nc4cc(CN5CCN(C(=O)CC6CC6)CC5)ccn4)[nH]c3c2)n1` [Example 40.02, 2-cyclopropyl-1-{4-[(2-{[6-(1-methyl-1H-pyrazol-3-yl)-1H-benzimidazol-2-yl]amino}pyridin-4-yl)methyl]piperazin-1-yl}ethanone] the IC50 was 1270 nM. `COc1cc(-c2ccc3nc(Nc4cc(CN5CCN(C(=O)C6CCC6)CC5)ccn4)[nH]c3c2)ccn1` [Example 02.04, cyclobutyl{4-[(2-{[6-(2-methoxypyridin-4-yl)-1H-benzimidazol-2-yl]amino}pyridin-4-yl)methyl]piperazin-1-yl}methanone] gave an IC50 of 43.4 nM. Molecule `COc1c(-c2ccc3nc(Nc4cc(CN5CCN(C(=O)C6CC6)CC5)ccn4)[nH]c3c2)ncnc1N(C)CC1CC1` [Example 110.02, cyclopropyl[4-({2-[(6-{6-[(cyclopropylmethyl)(methyl)amino]-5-methoxypyrimidin-4-yl}-1H-benzimidazol-2-yl)amino]pyridin-4-yl}methyl)piperazin-1-yl]methanone] has an IC50 of 30 nM. With `CC(C)(C)Cc1nc(-c2ccc3nc(Nc4cc(CN5CCN(c6ccccc6Cl)CC5)ccn4)[nH]c3c2)no1` [Example 22.02, N-(4-{[4-(2-chlorophenyl)piperazin-1-yl]methyl}pyridin-2-yl)-6-[5-(2,2-dimethylpropyl)-1,2,4-oxadiazol-3-yl]-1H-benzimidazol-2-amine] the IC50 was 779 nM. `COCCCNc1cc(-c2ccc3nc(Nc4cc(CN5CCN(C(=O)CC(F)(F)F)CC5)ccn4)[nH]c3c2)ncn1` [Example 90.02, 3,3,3-trifluoro-1-[4-({2-[(6-{6-[(3-methoxypropyl)amino]pyrimidin-4-yl}-1H-benzimidazol-2-yl)amino]pyridin-4-yl}methyl)piperazin-1-yl]propan-1-one] was tested, and the IC50 was 11 nM. `CC(c1ccnc(Nc2nc3ccc(-c4ccnn4C(C)C)cc3[nH]2)c1)N1CCN(C(=O)OC(C)(C)C)CC1` (single isomer, unassigned) [Example 72.01, tert-butyl 4-{(1R or 1S)-1-[2-({6-[1-(propan-2-yl)-1H-pyrazol-5-yl]-1H-benzimidazol-2-yl}amino)pyridin-4-yl]ethyl}piperazine-1-carboxylate] gave an IC50 of 800 nM. `CCN(CC)c1cc(-c2ccc3nc(Nc4cc(CN5CCN(C(=O)OC(C)(C)C)CC5)ccn4)[nH]c3c2)ncn1` [Example 155.01, tert-butyl 4-{[2-({6-[6-(diethylamino)pyrimidin-4-yl]-1H-benzimidazol-2-yl}amino)pyridin-4-yl]methyl}piperazine-1-carboxylate] was tested, and the IC50 was 36 nM. `O=C(C1CC1)N1CCN(Cc2ccnc(Nc3nc4ccc(-c5ccnc(F)c5)cc4[nH]3)c2)CC1` [Example 137.03, cyclopropyl{4-[(2-{[6-(2-fluoropyridin-4-yl)-1H-benzimidazol-2-yl]amino}pyridin-4-yl)methyl]piperazin-1-yl}methanone] gave an IC50 of 20 nM. `Cc1cncnc1-c1ccc2nc(Nc3cc(CN4CCN(C(=O)C5CC5)CC4)ccn3)[nH]c2c1` [Example 184.03, cyclopropyl{4-[(2-{[6-(5-methylpyrimidin-4-yl)-1H-benzimidazol-2-yl]amino}pyridin-4-yl)methyl]piperazin-1-yl}methanone] showed an IC50 of 216 nM. For `CC(c1ccnc(Nc2nc3cc(-c4cc(C(F)(F)F)nn4C)ccc3[nH]2)c1)N1CCN(C(=O)OC(C)(C)C)CC1` (single isomer, unassigned) [Example 88.01, tert-butyl 4-{(1R or 1S)-1-[2-({6-[1-methyl-3-(trifluoromethyl)-1H-pyrazol-5-yl]-1H-benzimidazol-2-yl}amino)pyridin-4-yl]ethyl}piperazine-1-carboxylate], the IC50 was 11000 nM. Work on `CC(c1ccnc(Nc2nc3ccc(-c4cc(C(F)(F)F)ncn4)c(F)c3[nH]2)c1)N1CCN(C(=O)C2CC2)CC1` (single isomer, unassigned) [Example 173.03, cyclopropyl(4-{(1R or 1S)-1-[2-({7-fluoro-6-[6-(trifluoromethyl)pyrimidin-4-yl]-1H-benzimidazol-2-yl}amino)pyridin-4-yl]ethyl}piperazin-1-yl)methanone] yielded an IC50 of 50.6 nM. With `COc1nnc(Cl)cc1-c1ccc2nc(Nc3cc(CN4CCN(C(=O)C5CC5)CC4)ccn3)[nH]c2c1` [Example 46.02, {4-[(2-{[6-(6-chloro-3-methoxypyridazin-4-yl)-1H-benzimidazol-2-yl]amino}pyridin-4-yl)methyl]piperazin-1-yl}(cyclopropyl)methanone] the IC50 was 72.2 nM. `CC(C)(C)OC(=O)N1CCN(Cc2ccnc(Nc3nc4ccc(-c5ccnc(OCC6CC6)n5)cc4[nH]3)c2)CC1` [Example 62.01.01, tert-butyl 4-{[2-({6-[2-(cyclopropylmethoxy)pyrimidin-4-yl]-1H-benzimidazol-2-yl}amino)pyridin-4-yl]methyl}piperazine-1-carboxylate] was tested, and the IC50 was 57.3 nM. In the case of `O=C(C1CC1)N1CCN(Cc2ccnc(Nc3nc4ccc(-c5ccncn5)cc4[nH]3)c2)CC1` [Example 23.01.02, cyclopropyl{4-[(2-{[6-(pyrimidin-4-yl)-1H-benzimidazol-2-yl]amino}pyridin-4-yl)methyl]piperazin-1-yl}methanone], the IC50 is reported as 22.1 nM. Molecule `CC(=O)N1CCN(Cc2ccnc(Nc3nc4ccc(-c5nc(C)no5)cc4[nH]3)c2)CC1` [Example 101.06, 1-{4-[(2-{[6-(3-methyl-1,2,4-oxadiazol-5-yl)-1H-benzimidazol-2-yl]amino}pyridin-4-yl)methyl]piperazin-1-yl}ethanone] has an IC50 of 990 nM. Work on `Cn1cc(-c2ccc3nc(Nc4cc(CN5CCN(C(=O)C6CCC6)CC5)ccn4)[nH]c3c2)cn1` [Example 37.04, cyclobutyl{4-[(2-{[6-(1-methyl-1H-pyrazol-4-yl)-1H-benzimidazol-2-yl]amino}pyridin-4-yl)methyl]piperazin-1-yl}methanone] yielded an IC50 of 73.9 nM. `CC(c1ccnc(Nc2nc3ccc(-c4cc(C(F)F)ncn4)cc3[nH]2)c1)N1CCN(C(=O)C2CC2)CC1` (single isomer, unassigned) [Example 174.03, cyclopropyl(4-{(1R or 1S)-1-[2-({6-[6-(difluoromethyl)pyrimidin-4-yl]-1H-benzimidazol-2-yl}amino)pyridin-4-yl]ethyl}piperazin-1-yl)methanone] showed an IC50 of 3.26 nM. With `CC(C)N(C)c1cc(-c2ccc3nc(Nc4cc(CN5CCN(C(=O)OC(C)(C)C)CC5)ccn4)[nH]c3c2)ncn1` [Example 153.01, tert-butyl 4-({2-[(6-{6-[methyl(propan-2-yl)amino]pyrimidin-4-yl}-1H-benzimidazol-2-yl)amino]pyridin-4-yl}methyl)piperazine-1-carboxylate] the IC50 was 14 nM. `O=C(C1CCC1)N1CCN(Cc2ccnc(Nc3nc4ccc(-c5cnn(CC(F)(F)F)c5)cc4[nH]3)c2)CC1` [Example 58.01.01, cyclobutyl(4-{[2-({6-[1-(2,2,2-trifluoroethyl)-1H-pyrazol-4-yl]-1H-benzimidazol-2-yl}amino)pyridin-4-yl]methyl}piperazin-1-yl)methanone] was tested, and the IC50 was 12.8 nM. `CCOc1cnc(C)cc1-c1ccc2nc(Nc3cc(CN4CCN(C(=O)CC5CC5)CC4)ccn3)[nH]c2c1` [Example 09.03, 2-cyclopropyl-1-{4-[(2-{[6-(5-ethoxy-2-methylpyridin-4-yl)-1H-benzimidazol-2-yl]amino}pyridin-4-yl)methyl]piperazin-1-yl}ethanone] showed an IC50 of 324 nM. Molecule `COc1c(NC2CC2)ncnc1-c1ccc2nc(Nc3cc(CN4CCN(C(=O)CC(F)(F)F)CC4)ccn3)[nH]c2c1` [Example 108.02, 1-(4-{[2-({6-[6-(cyclopropylamino)-5-methoxypyrimidin-4-yl]-1H-benzimidazol-2-yl}amino)pyridin-4-yl]methyl}piperazin-1-yl)-3,3,3-trifluoropropan-1-one] has an IC50 of 8.2 nM. With `CC(C)Oc1cc(-c2ccc3nc(Nc4cc(CN5CCN(C(=O)C6CC6)CC5)ccn4)[nH]c3c2)ncn1` [Example 160.03, cyclopropyl(4-{[2-({6-[6-(propan-2-yloxy)pyrimidin-4-yl]-1H-benzimidazol-2-yl}amino)pyridin-4-yl]methyl}piperazin-1-yl)methanone] the IC50 was 8.5 nM. `COCc1cc(-c2ccc3nc(Nc4cc(CN5CCN(C(=O)CC(F)(F)F)CC5)ccn4)[nH]c3c2)ncn1` [Example 79.01, 3,3,3-trifluoro-1-(4-{[2-({6-[6-(methoxymethyl)pyrimidin-4-yl]-1H-benzimidazol-2-yl}amino)pyridin-4-yl]methyl}piperazin-1-yl)propan-1-one] showed an IC50 of 8.3 nM. Molecule `Cc1nnc(-c2ccc3nc(Nc4cc(CN5CCN(C(=O)OC(C)(C)C)CC5)ccn4)[nH]c3c2)o1` [Example 66.01.01, tert-butyl 4-[(2-{[6-(5-methyl-1,3,4-oxadiazol-2-yl)-1H-benzimidazol-2-yl]amino}pyridin-4-yl)methyl]piperazine-1-carboxylate] has an IC50 of 33.3 nM. For `COc1cc(-c2ccc3nc(Nc4cc(CN5CCN(C(=O)OC(C)(C)C)CC5)ccn4)[nH]c3c2)ncn1` [Example 34.01.01, tert-butyl 4-[(2-{[6-(6-methoxypyrimidin-4-yl)-1H-benzimidazol-2-yl]amino}pyridin-4-yl)methyl]piperazine-1-carboxylate], the IC50 was 50.6 nM. In the case of `COc1c(-c2ccc3nc(Nc4cc(C(C)N5CCN(C(=O)OC(C)(C)C)CC5)ccn4)[nH]c3c2)ncnc1N1CCCC1` (single isomer, unassigned) [Example 112.01, tert-butyl 4-{(1R or S)-1-[2-({6-[5-methoxy-6-(pyrrolidin-1-yl)pyrimidin-4-yl]-1H-benzimidazol-2-yl}amino)pyridin-4-yl]ethyl}piperazine-1-carboxylate], the IC50 is reported as 8.2 nM.
